Several values for one entry are separate records, joined by “and”; a condition that tells them apart may be missing. Equal values may be shown once.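 Cultured in 96-well plates, cells were exposed to test compound for 48 hours across five concentrations. GI50 = concentration required for 50% inhibition of growth. The concentration for full growth arrest is given as TGI.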 Where only a bound is given, the exact number is not on record here.

Some test systems named below: U251 CNS; HOP-92 NSCLC; TK-10 renal; COLO 205 colon; UACC-62 melanoma; M14 melanoma; UACC-257 melanoma; SNB-75 CNS; NCI-H460 lung; SK-OV-3 ovarian.
What all share (test): NCI tumour cell line growth inhibition, 48 h

On to `COc1cccc(C(=O)N2CCc3ccccc32)c1OC`, for which the TGI in the assay with U251 CNS, in the assay on HOP-92 NSCLC, in the assay with TK-10 renal, in the assay on COLO 205 colon, in the assay with UACC-62 melanoma and in the assay with M14 melanoma was more than 100 µM throughout. The TGI in the assay on UACC-257 melanoma, in the assay with SNB-75 CNS, with NCI-H460 lung and with SK-OV-3 ovarian was more than 100 µM each time.
`COc1c(C(=O)O)oc2c(OC)cccc12`: the TGI in the assay on U251 CNS, with HOP-92 NSCLC, with TK-10 renal, in the assay on COLO 205 colon, with UACC-62 melanoma and in the assay on M14 melanoma was more than 100 µM each time. In addition, the TGI in the assay with UACC-257 melanoma, with SNB-75 CNS, with NCI-H460 lung and in the assay with SK-OV-3 ovarian was more than 100 µM throughout.
In the case of `C=C1C(=O)O[C@H]2[C@H]1CC/C(COC(=O)NCc1ccc(Cn3c(=O)sn(CCCCl)c3=O)cc1)=C\CC[C@@]1(C)O[C@@H]21`, the GI50 was 5.05 µM in the assay on U251 CNS; 1.1 µM with HOP-92 NSCLC; 1.75 µM with TK-10 renal; 2.04 µM in the assay with COLO 205 colon; 1.44 µM in the assay with UACC-62 melanoma; 1.93 µM in the assay with M14 melanoma. The GI50 is 1.61 µM with UACC-257 melanoma, 2.03 µM in the assay with SNB-75 CNS, 11.3 µM in the assay with NCI-H460 lung and 18.3 µM in the assay on SK-OV-3 ovarian. Moreover, the TGI in the assay with U251 CNS stood at 17.2 µM; in the assay on HOP-92 NSCLC, 2.47 µM; in the assay with TK-10 renal, 3.34 µM; in the assay with COLO 205 colon it was 3.92 µM; in the assay on UACC-62 melanoma, 2.8 µM; in the assay on M14 melanoma, 4.5 µM. Moreover, the TGI amounted to 3.41 µM in the assay on UACC-257 melanoma, 11.4 µM in the assay on SNB-75 CNS, 30.5 µM in the assay with NCI-H460 lung and 32.2 µM in the assay with SK-OV-3 ovarian.
In the case of `COc1ccc(/C=C/c2nc(NCCCN(C)C)c3ccccc3n2)cc1`, the GI50 with U251 CNS is 1.79 µM; with HOP-92 NSCLC, 2.5 µM; with TK-10 renal, 6.59 µM; with COLO 205 colon it was 1.8 µM; in the assay with UACC-62 melanoma, 11.1 µM; in the assay with M14 melanoma, 2.16 µM. Also, the GI50 in the assay on UACC-257 melanoma was 1.87 µM; in the assay on SNB-75 CNS it was 1.34 µM; with NCI-H460 lung it was 2.19 µM; in the assay on SK-OV-3 ovarian, 2.51 µM. Moreover, the TGI with U251 CNS stood at 3.37 µM; in the assay on HOP-92 NSCLC, 8.15 µM; with TK-10 renal it was 22 µM; in the assay with COLO 205 colon, 3.3 µM; with UACC-62 melanoma it was 25.4 µM; with M14 melanoma, 4.81 µM. For the same compound, the TGI came out at 3.65 µM with UACC-257 melanoma, 2.88 µM in the assay on SNB-75 CNS, 4.7 µM with NCI-H460 lung and 6.3 µM in the assay with SK-OV-3 ovarian.
For `COCCOC(=O)NC(=O)Nc1ccc(/C(=N/O)c2ccc(Cl)cc2)cc1`, the GI50 with U251 CNS was 0.12 µM; in the assay with HOP-92 NSCLC, 1.4 µM; in the assay with TK-10 renal, 16.5 µM; with COLO 205 colon it was 0.14 µM; in the assay with UACC-62 melanoma it was 0.109 µM; in the assay with M14 melanoma it was 0.0843 µM. Moreover, the GI50 in the assay with UACC-257 melanoma was 13 µM; in the assay on SNB-75 CNS it was 0.129 µM; in the assay with NCI-H460 lung, 0.129 µM; in the assay on SK-OV-3 ovarian, 0.118 µM. The TGI was 33 µM in the assay with U251 CNS; 44.1 µM in the assay with HOP-92 NSCLC; more than 82.6 µM in the assay on TK-10 renal; 2.28 µM in the assay with COLO 205 colon; 15.8 µM in the assay on UACC-62 melanoma; 18.4 µM in the assay on M14 melanoma. In addition, the TGI in the assay on UACC-257 melanoma was found to be 48.9 µM; in the assay with SNB-75 CNS, 7.94 µM; in the assay on NCI-H460 lung it was 13.7 µM; in the assay on SK-OV-3 ovarian, 25.1 µM.
`CN1CCCN(C)C1c1cc([N+](=O)[O-])ccc1O`: the TGI in the assay on U251 CNS was more than 100 µM; in the assay with HOP-92 NSCLC, 76.6 µM; in the assay on TK-10 renal, more than 100 µM; in the assay with COLO 205 colon, more than 100 µM; in the assay on UACC-62 melanoma, 44.3 µM; in the assay on M14 melanoma, 58.5 µM. The TGI is 61.3 µM in the assay with UACC-257 melanoma, more than 100 µM in the assay with SNB-75 CNS, more than 100 µM in the assay with NCI-H460 lung and more than 100 µM in the assay with SK-OV-3 ovarian.
With `CC(C)(C)NCc1cc(C(C)(C)C)cc(-c2ccc(Cl)cc2)c1O`, the TGI in the assay with U251 CNS was determined as 24.1 µM; with HOP-92 NSCLC, 28.3 µM; in the assay on TK-10 renal, 26 µM; with COLO 205 colon, 23.8 µM; in the assay with UACC-62 melanoma it was 32 µM; in the assay on M14 melanoma, 28.8 µM. Besides, the TGI stood at 50.3 µM in the assay with UACC-257 melanoma, 22.7 µM in the assay with SNB-75 CNS, 34.8 µM in the assay on NCI-H460 lung and 31.5 µM in the assay with SK-OV-3 ovarian.
`N=c1nnc(=O)c2c(s1)-n1ncc(C(=O)O)c1NN2`: the TGI in the assay on U251 CNS, in the assay with HOP-92 NSCLC, with TK-10 renal, with COLO 205 colon, with UACC-62 melanoma and in the assay on M14 melanoma was more than 100 µM in each case. In addition, the TGI in the assay on SNB-75 CNS and in the assay with SK-OV-3 ovarian was more than 100 µM each time.
As for `CO/C1=C\C(C)=C\C(C)C(O)C(C)C/C(C)=C/C=C/C(OC)C(C(C)C(O)C(C)C2(O)CC(O)C(C)C(C(C)C)O2)OC1=O` (stereo not given), the TGI in the assay on U251 CNS was 17 µM; with HOP-92 NSCLC, 0.0225 µM; in the assay on TK-10 renal, 29.5 µM; in the assay on UACC-62 melanoma, 0.00785 µM and 0.0254 µM; in the assay on M14 melanoma, 0.00127 µM; in the assay with UACC-257 melanoma, 0.0699 µM and 0.0653 µM. The TGI in the assay with SK-OV-3 ovarian was determined as 33.6 µM. The GI50 was 0.0248 µM in the assay with UACC-257 melanoma and 0.0396 µM in the assay with SNB-75 CNS.
With `CC(=O)O[C@H]1CC[C@@]2(C)C(=CC[C@H]3C4=CC=C(C(C)=O)[C@@]4(C)CCC32)C1` (stereo not given in full), the TGI in the assay on U251 CNS was more than 100 µM; in the assay with HOP-92 NSCLC it was more than 100 µM; in the assay on TK-10 renal, more than 100 µM; with COLO 205 colon, 39.6 µM; with UACC-62 melanoma, 46.8 µM; in the assay on M14 melanoma, more than 100 µM. The TGI with UACC-257 melanoma is 62.1 µM; in the assay with SNB-75 CNS it was more than 100 µM; with NCI-H460 lung, more than 100 µM; in the assay on SK-OV-3 ovarian it was more than 100 µM.
On to `CCNC(=O)C#CC(=O)NCC`, for which the GI50 in the assay with U251 CNS, in the assay on HOP-92 NSCLC, in the assay with TK-10 renal, in the assay with UACC-62 melanoma, with M14 melanoma and with UACC-257 melanoma was more than 10 µM throughout. Also, the GI50 with SNB-75 CNS and in the assay on NCI-H460 lung was more than 10 µM each time. Also, the TGI in the assay on U251 CNS, with HOP-92 NSCLC, with TK-10 renal, in the assay with COLO 205 colon, in the assay with UACC-62 melanoma and with M14 melanoma was more than 100 µM each time. For the same compound, the TGI with UACC-257 melanoma, with SNB-75 CNS, in the assay with NCI-H460 lung and in the assay on SK-OV-3 ovarian was more than 100 µM each time.

For the origin of these results see PubChem BioAssay (NCI).
